1 molecule from patent US20230398153A1, “A METHOD FOR EFFICIENT MICROGLIA REPLACEMENT” (The Board of Trustees of the Leland Stanford Junior …, priority 2020, published 2023) can be followed below.

For the assay, the system named is PB leukocytes and brain myeloid cells. Kind of assay: Conventional HSCT after busulfan conditioning: GFP chimerism in peripheral blood and brain. It is filed as in vivo, mouse. The settings on record: busulfan 5 days, IV GFP bone marrow. The procedure:
FIG. 1. Microglia replacement after bone marrow transplantation is a slow, inefficient and variable process. (A) Schematic overview of bone marrow transplantation (HSCT). Recipient mice were received intraperitoneal (IP) injection of busulfan for 5 days at 25 mg/kg/day (i.e. 125 mg/kg total dose) and then transplanted with GFP-expressing bone marrow cells via intravenous (IV) injection. Donor chimerism in peripheral blood (PB) and brain myeloid cells was analyzed at the indicated time points. (B and C) Donor chimerism in PB leukocytes (CD45+ cells) and brain myeloid cells (CD45+CD11b+ cells) was analyzed by flow cytometry at the indicated time point. […] GFP chimerism in PB leukocytes (B) (Mean±SEM, n=5-20/time point, ***p<0.001, ns: not significant, ANOVA). […] (F) Quantification of transplanted GFP+bone marrow cells in coronal brain sections. […] Horizontal bars represent mean values (n=3/group, 3 brain slices/animal were quantified. **p<0.01, ***p<0.001, Student's t-test). […] (H) Microglia chimerism was analyzed by flow cytometry 14 days post IV injection. […]
The reported efficiencies of microglia replacement following HSCT in mice vary greatly in the literature. […] Brain chimerism was determined by sacrificing the mice, dissociating one hemisphere for flow cytometry analysis and fixing the other hemisphere for immunofluorescence analysis (FIG. 8A-C). […]

Regarding `CS(=O)(=O)OCCCCOS(C)(=O)=O` [busulfan], the “GFP+ cells in peripheral blood” value (2 weeks after transplantation, average) is on record as “about 40%”. For the same molecule, the “degree of GFP chimerism among brain myeloid cells, range between mice” value (conventional HSCT without PLX5622) is 7.09-73.4%.
